The text below walks through data of ChEMBL document CHEMBL1201862, “PubChem BioAssay data set” (2004).

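Dose response: 5 concentrations. Exposure: 48 h. Format: 96-well plates. Endpoint: linear interpolation; highest concentration if not reached. Abbreviation: GI50, concentration required for 50% inhibition of growth.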 The source made the active and inactive calls. No stated cut-off is given here; in the data, active = GI50 up to about 1.1 µM and inactive = higher. Square brackets hold non-standard residues; d marks the D form. Peptide text beside a SMILES is read from it. Ac5c = NC1(C(=O)O)CCCC1

Some test systems named below: A498; BT-549; EKVX; HCC 2998; IGROV-1; KM12; MCF7; MOLT-4; NCI-H23; NCI-H460; OVCAR-8; RPMI-8226; RXF 393; SF-295; SK-MEL-2; SN12C; SR; TK-10; UACC-62.
Experiment in all cases: inhibition of tumour cell growth, NCI panel, 48 h

In the case of `CCOC(=O)n1ccc2c(C(=O)OC)c(C(=O)OC)cc(/C(=C/C(=O)OC)C(=O)OC)c21`, the GI50 with A498 was > 100 µM (inactive); with BT-549, 60.7 µM (inactive); in the assay on EKVX it was > 100 µM (inactive); in the assay on HCC 2998 it was > 100 µM (inactive); with IGROV-1 it was > 100 µM (inactive); in the assay with KM12 it was > 100 µM (inactive). Further, the GI50 is > 100 µM (inactive) in the assay on MCF7; 32.1 µM (inactive) in the assay with MOLT-4; > 100 µM (inactive) with NCI-H23; > 100 µM (inactive) with NCI-H460; > 100 µM (inactive) with OVCAR-8; 26.5 µM (inactive) with RPMI-8226. In addition, the GI50 was 66.8 µM (inactive) in the assay on RXF 393; > 100 µM (inactive) in the assay with SF-295; > 100 µM (inactive) in the assay with SK-MEL-2; > 100 µM (inactive) in the assay with SN12C; 79.8 µM (inactive) in the assay with SR; > 100 µM (inactive) with TK-10. Moreover, in the assay on UACC-62, the GI50 was 82.2 µM (inactive).

On to `CCOc1cc(C2SCC(=O)N2c2nc3cc4sc(N5C(=O)CSC5c5ccc(O)c(OCC)c5)nc4cc3s2)ccc1O` (configuration not stated), for which the GI50 in the assay on A498 was 48.6 µM (inactive); in the assay with BT-549, 9.59 µM (inactive); in the assay on EKVX, 67.3 µM (inactive); in the assay with HCC 2998, > 100 µM (inactive); with IGROV-1, 15.9 µM (inactive); in the assay on KM12 it was 45.3 µM (inactive). For the same molecule, the GI50 with MCF7 is 9.86 µM (inactive); in the assay with MOLT-4 it was 4.61 µM (inactive); in the assay on NCI-H23, 9.59 µM (inactive); in the assay on NCI-H460, 2.37 µM (inactive); in the assay with OVCAR-8 it was > 68.7 µM (inactive); with RPMI-8226, 32.5 µM (inactive). Also, the GI50 in the assay on RXF 393 is > 100 µM (inactive); with SF-295 it was > 100 µM (inactive); in the assay on SK-MEL-2 it was > 100 µM (inactive); in the assay on SN12C, > 31.5 µM (inactive); in the assay with SR, 5.85 µM (inactive); in the assay on TK-10, > 100 µM (inactive). Also, in the assay on UACC-62, the GI50 is 98.6 µM (inactive).

Regarding `CC(C)/C(Cl)=N/OC(=O)Nc1ccc(OC(F)(F)F)cc1`, the GI50 in the assay with A498 is 18.6 µM (inactive); in the assay with BT-549 it was 16.3 µM (inactive); with EKVX, 8.17 µM (inactive); in the assay with HCC 2998, 16.7 µM (inactive); with IGROV-1, 16.5 µM (inactive); in the assay on KM12 it was 16.6 µM (inactive). Further, the GI50 was 13.5 µM (inactive) in the assay on MCF7; 2.86 µM (inactive) with MOLT-4; 15.7 µM (inactive) with NCI-H23; 16.6 µM (inactive) with NCI-H460; 18.1 µM (inactive) with OVCAR-8; 2.49 µM (inactive) with RPMI-8226. Moreover, the GI50 in the assay on RXF 393 is 4.03 µM (inactive); with SF-295, 18.5 µM (inactive); in the assay on SK-MEL-2, 14.2 µM (inactive); in the assay on SN12C, 16.4 µM (inactive); with SR, 1.94 µM (inactive); in the assay with TK-10, 15.9 µM (inactive). Moreover, the GI50 in the assay with UACC-62 is 16.3 µM (inactive).

Regarding `CCOC(=O)/C(C(N)=O)=C(O)/C(O)=C(\Br)C(=O)c1ccccc1`, the GI50 was > 100 µM (inactive) in the assay with A498; 18.6 µM (inactive) in the assay with BT-549; 23.9 µM (inactive) with EKVX; 22 µM (inactive) in the assay on HCC 2998; 15.9 µM (inactive) with IGROV-1; 18.1 µM (inactive) in the assay on KM12. Moreover, the GI50 in the assay on MCF7 is 17.7 µM (inactive); with MOLT-4, 2.99 µM (inactive); with NCI-H23 it was 18.8 µM (inactive); in the assay with NCI-H460 it was 24.8 µM (inactive); in the assay on OVCAR-8 it was 19.6 µM (inactive); in the assay with RPMI-8226 it was 9.25 µM (inactive). In addition, the GI50 is 15.6 µM (inactive) in the assay with RXF 393; 56.8 µM (inactive) with SF-295; 18.9 µM (inactive) in the assay on SK-MEL-2; 18.5 µM (inactive) in the assay with SN12C; 3.68 µM (inactive) in the assay on SR; 19 µM (inactive) in the assay on TK-10. Further, the GI50 in the assay on UACC-62 was 17.8 µM (inactive).

`O=C1NC(=O)C(c2c[nH]c3cc(Br)ccc23)=C1c1cn(C(c2ccccc2)(c2ccccc2)c2ccccc2)cn1`: the GI50 in the assay on A498 was 16.8 µM (inactive); in the assay with BT-549, 16 µM (inactive); with EKVX, 7.82 µM (inactive); in the assay on HCC 2998, 12.6 µM (inactive); with IGROV-1 it was 12 µM (inactive); in the assay on KM12 it was 9.23 µM (inactive). Besides, the GI50 with MCF7 is 10.8 µM (inactive); with MOLT-4, 4.41 µM (inactive); in the assay on NCI-H23, 11.3 µM (inactive); in the assay with NCI-H460 it was 11.1 µM (inactive); in the assay with OVCAR-8, 14.6 µM (inactive); with RPMI-8226, 10.1 µM (inactive). Moreover, the GI50 in the assay on RXF 393 was 15 µM (inactive); in the assay with SF-295, 18.1 µM (inactive); in the assay on SK-MEL-2, 11.2 µM (inactive); with SN12C, 15.5 µM (inactive); in the assay with SR, 6.64 µM (inactive); in the assay with TK-10, 16.2 µM (inactive). The GI50 in the assay with UACC-62 is 18.2 µM (inactive).

Consider `NCC(=O)NC1(C(=O)O)CCCC1` (H-Gly-[Ac5c]-OH), for which the GI50 with A498, with BT-549, in the assay with EKVX, with HCC 2998, with IGROV-1 and in the assay with KM12 was > 100 µM (inactive) throughout. Moreover, the GI50 in the assay on MCF7, in the assay on MOLT-4, with NCI-H23, in the assay on NCI-H460, with OVCAR-8 and in the assay with RPMI-8226 was > 100 µM (inactive) throughout. Besides, the GI50 with RXF 393, in the assay with SF-295, in the assay on SK-MEL-2, with SN12C, with SR and in the assay with TK-10 was > 100 µM (inactive) throughout. Moreover, in the assay on UACC-62, the GI50 was > 100 µM (inactive).

`CC(N)(Cc1c[nH]c2ccccc12)C(=O)O` (configuration not stated): the GI50 in the assay with A498, in the assay on BT-549, in the assay with EKVX, in the assay with HCC 2998, in the assay with IGROV-1 and in the assay with KM12 was > 100 µM (inactive) each time. Further, the GI50 in the assay on MCF7, in the assay with MOLT-4, with NCI-H23, with NCI-H460, with OVCAR-8 and in the assay on RPMI-8226 was > 100 µM (inactive) throughout. Further, the GI50 in the assay with RXF 393, in the assay with SF-295, with SK-MEL-2, with SN12C, with SR and in the assay on TK-10 was > 100 µM (inactive) each time. Further, the GI50 in the assay on UACC-62 was > 100 µM (inactive).

Turning to `O=C1C(c2ccccc2)=C(c2ccccc2)C1(Cl)Cl`, the GI50 was 5.21 µM (inactive) with A498; 2.47 µM (inactive) in the assay on BT-549; 5.04 µM (inactive) in the assay on EKVX; 5.19 µM (inactive) in the assay on HCC 2998; 3.95 µM (inactive) in the assay with IGROV-1; 6.65 µM (inactive) in the assay with KM12. Also, the GI50 with MCF7 was 2.61 µM (inactive); in the assay with MOLT-4, 2.55 µM (inactive); in the assay on NCI-H23, 2.75 µM (inactive); with NCI-H460 it was 5.9 µM (inactive); with OVCAR-8, 2.64 µM (inactive); in the assay with RPMI-8226 it was 2.11 µM (inactive). Besides, the GI50 with RXF 393 was 1.88 µM (inactive); in the assay on SF-295, 9.89 µM (inactive); in the assay with SK-MEL-2, 2.72 µM (inactive); with SN12C, 2.87 µM (inactive); in the assay with SR, 2.04 µM (inactive); in the assay on TK-10 it was 0.667 µM (active). The GI50 in the assay with UACC-62 is 1.86 µM (inactive).
